{"source": "patent US20190298740A1", "about": "“METHODS AND COMPOSITIONS FOR TREATING HALLUCINATIONS AND CONDITIONS RELATED TO THE SAME” (Enterin, Inc., priority 2018, published 2019)", "format_in_all_cases": "in vivo, human", "key": {"[1]": {"system": "patients with PD and constipation", "test": "Bowel function (prokinetic response, stool diary indices), Phase 2 trial", "conditions": "for Cumulative prokinetic response rate (CSBM within 24 hours of dosing): Stage 1, single dose; for Prokinetic response rate (CSBM within 24 hours of dosing on at least 2 of 3 days): Stage 2, daily dosing; for CSBM, weekly average: baseline 1.2 (0.90); for PAC-SYM: baseline 1.3 (0.45); for SBM, weekly average: baseline 2.6 (1.45)", "experimental": "Following successful screening, all subjects underwent a 14-day run-in period where the degree of constipation was assessed through a validated daily log (Zinsmeister et al. 2013) establishing baseline CSBMs/week. Subjects with an average of <3 CSBMs/week proceeded to dosing.\n(§1) Tolerability limits included diarrhea or vomiting.\nIn Stage 2, 34 patients were evaluated.\nThe primary efficacy outcome variable was whether or not a subject was a “success” or “failure”. This is an endpoint based on subject diary entries for the “fixed dose” period prior to the endpoint assessment defined as average complete stool frequency increase by 1 or more over baseline, or 3 or more complete spontaneous stools/week. The subject was deemed a “success” if s/he met one or more of the criteria listed above, otherwise the subject was deemed a “failure”. The primary analysis was based on all subjects with a baseline assessment and an assessment at the end of the “fixed-dose” period and was a comparison of the proportion of successes with 0.10 (the null hypothesis corresponding to no treatment effect)."}, "[2]": {"test": "Safety and adverse event profile, Phase 2 trial", "text": "as §1"}, "patients with PD": {"system": "patients with PD", "test": "Circadian rhythm of wrist skin temperature", "conditions": "oral, 12 patients with evaluable data", "experimental": "(6) I-Button Temperature Assessment. The I-Button is a small, rugged self-sufficient system that measures temperature and records the results in a protected memory section. The Thermochron I-Button DS1921H (Maxim Integrated, Dallas, Tex.) was used for skin temperature measurement. I-Buttons were programmed to sample every 10 mins., and attached to a double-sided cotton sport wrist band using Velcro, with the sensor face of the I-Button placed over the inside of the wrist, on the radial artery of the dominant hand. Subjects removed and replaced the data logger when necessary (i.e., to have a bath or shower). […] From the collected data, the mesor, amplitude, acrophase (time of peak temperature), Rayleight test (an index of interdaily stability), mean waveforms are calculated);\nAssessments were made at baseline and at the end of the fixed dose and washout periods. Circadian system status was evaluated by continuously monitoring wrist skin temperature (Thermochron iButton DS1921H; Maxim, Dallas) following published procedures (Sarabia et al. 2008).\nCircadian rhythm of skin temperature was evaluable in 12 patients (i.e., those who had recordings that extended from baseline through washout). Circadian system functionality was evaluated by continuously monitoring wrist skin temperature using a temperature sensor (Thermochron iButton DS1921H; Maxim, Dallas, Tex.) (Sarabia et al. 2008). […]"}, "[3]": {"conditions": "Stage 2, n = 34, fixed dose, mean (SD)"}}, "note": "Where “and” joins values, the source holds several entries; their conditions need not be identical. Equal entries are not always repeated. Entries after “also recorded” stand apart in the source; their conditions may differ.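 Throughout, for Diarrhea, common adverse events by dose: number of subjects experiencing the event at each dose level.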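 Throughout, for Nausea, common adverse events by dose: number of subjects experiencing the event at each dose level.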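 Throughout, for Vomiting, common adverse events by dose: number of subjects experiencing the event at each dose level.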"}
{"smiles": "CC(C)[C@@H](CC[C@@H](C)[C@H]1CC[C@H]2[C@@H]3[C@H](O)C[C@H]4C[C@@H](NCCCNCCCCN)CC[C@]4(C)[C@H]3CC[C@]12C)OS(=O)(=O)O", "note": "(single isomer, unassigned) [squalamine (ENT-01)]", "values": [{"measurement": "Patients responding within the effective dose range", "setting": "[1]; 75 mg to 250 mg", "result": 85, "unit": "%"}, {"measurement": "Cumulative prokinetic response rate (CSBM within 24 hours of dosing)", "setting": "[1]; 25 mg", "result": 25, "unit": "%"}, {"measurement": "Cumulative prokinetic response rate (CSBM within 24 hours of dosing)", "setting": "[1]; 200 mg (maximum)", "result": 80, "unit": "%"}, {"measurement": "Median efficacious dose", "setting": "[1]; Stage 2", "result": 100, "unit": "mg"}, {"measurement": "Prokinetic response rate (CSBM within 24 hours of dosing on at least 2 of 3 days)", "setting": "[1]; 75 mg", "result": 26, "unit": "%"}, {"measurement": "Prokinetic response rate (CSBM within 24 hours of dosing on at least 2 of 3 days)", "setting": "[1]; 250 mg", "result": 85.3, "unit": "%"}, {"measurement": "CSBM, weekly average", "setting": "[1]; [3]", "result": "3.8 /week and 3.8 (2.4) /week"}, {"measurement": "PAC-SYM", "setting": "[1]; [3]", "result": "1.1 (0.49)"}, {"measurement": "Suppository use / rescue medication, weekly average", "setting": "[1]; Stage 2, n = 34, fixed dose, mean (SD), baseline 1.8 (1.92)", "result": "0.3 /week"}, {"measurement": "SBM, weekly average", "setting": "[1]; [3]", "result": "4.5 /week"}, {"measurement": "CSBM, weekly average", "setting": "[1]; Stage 2, wash-out, mean (SD)", "result": "1.8 (1.19) /week"}, {"measurement": "PAC-SYM", "setting": "[1]; Stage 2, wash-out, mean (SD)", "result": "1.1 (0.60)"}, {"measurement": "PAC-QOL", "setting": "[1]; Stage 2, wash-out, mean (SD), baseline 1.4 (0.49)", "result": "1.2 (0.63)"}, {"measurement": "Rescue meds, weekly average", "setting": "[1]; Stage 2, wash-out, mean (SD), baseline 1.8 (1.92)", "result": "1.0 (1.40) /week"}, {"measurement": "SBM, weekly average", "setting": "[1]; Stage 2, wash-out, mean (SD)", "result": "3.2 (1.80) /week"}, {"measurement": "Stool consistency (Bristol stool scale 1-7)", "setting": "[1]; Stage 2, wash-out, mean (SD), baseline 2.7 (1.20)", "result": "2.8 (1.39)"}, {"measurement": "Ease of passage (Ease of evacuation scale 1-7)", "setting": "[1]; Stage 2, wash-out, mean (SD), baseline 3.2 (0.73)", "result": "3.3 (0.81)"}, {"measurement": "CSBM frequency, randomized cohort", "setting": "[1]; group later randomized to placebo (n = 9), fixed dose period on drug, baseline 1.6", "result": 3.3, "unit": "CSBM/week"}, {"measurement": "CSBM frequency, randomized cohort", "setting": "[1]; group randomized to treatment (n = 6), fixed dose period, baseline 0.8", "result": 3.2, "unit": "CSBM/week"}, {"measurement": "CSBM frequency, randomized cohort", "setting": "[1]; group randomized to treatment (n = 6), randomized period 4-6 days, baseline 0.8", "result": 2.4, "unit": "CSBM/week"}, {"measurement": "CSBM frequency, randomized cohort", "setting": "[1]; group randomized to treatment (n = 6), washout, baseline 0.8", "result": 0.9, "unit": "CSBM/week"}, {"measurement": "Mean dose required for a bowel response", "setting": "[1]; patients with baseline constipation of <1 CSBM/week", "result": 192, "unit": "mg"}, {"measurement": "Mean dose required for a bowel response", "setting": "[1]; patients with baseline ≥1 CSBM/week", "result": 120, "unit": "mg"}, {"measurement": "Diarrhea, common adverse events by dose", "setting": "[2]; Stage 1, 25 mg", "result": 1}, {"measurement": "Nausea, common adverse events by dose", "setting": "[2]; Stage 1, 25 mg", "result": 0}, {"measurement": "Vomiting, common adverse events by dose", "setting": "[2]; Stage 1, 25 mg", "result": 0}, {"measurement": "Diarrhea, common adverse events by dose", "setting": "[2]; Stage 1, 50 mg", "result": 1}, {"measurement": "Nausea, common adverse events by dose", "setting": "[2]; Stage 1, 50 mg", "result": 0}, {"measurement": "Vomiting, common adverse events by dose", "setting": "[2]; Stage 1, 50 mg", "result": 0}, {"measurement": "Diarrhea, common adverse events by dose", "setting": "[2]; Stage 1, 75 mg", "result": 1}, {"measurement": "Nausea, common adverse events by dose", "setting": "[2]; Stage 1, 75 mg", "result": 0}, {"measurement": "Vomiting, common adverse events by dose", "setting": "[2]; Stage 1, 75 mg", "result": 0}, {"measurement": "Diarrhea, common adverse events by dose", "setting": "[2]; Stage 1, 100 mg", "result": 0}, {"measurement": "Nausea, common adverse events by dose", "setting": "[2]; Stage 1, 100 mg", "result": 1}, {"measurement": "Vomiting, common adverse events by dose", "setting": "[2]; Stage 1, 100 mg", "result": 1}, {"measurement": "Diarrhea, common adverse events by dose", "setting": "[2]; Stage 1, 125 mg", "result": 1}, {"measurement": "Nausea, common adverse events by dose", "setting": "[2]; Stage 1, 125 mg", "result": 2}, {"measurement": "Vomiting, common adverse events by dose", "setting": "[2]; Stage 1, 125 mg", "result": 1}, {"measurement": "Diarrhea, common adverse events by dose", "setting": "[2]; Stage 1, 150 mg", "result": 1}, {"measurement": "Nausea, common adverse events by dose", "setting": "[2]; Stage 1, 150 mg", "result": 0}, {"measurement": "Vomiting, common adverse events by dose", "setting": "[2]; Stage 1, 150 mg", "result": 0}, {"measurement": "Diarrhea, common adverse events by dose", "setting": "[2]; Stage 1, 175 mg", "result": 1}, {"measurement": "Nausea, common adverse events by dose", "setting": "[2]; Stage 1, 175 mg", "result": 1}, {"measurement": "Vomiting, common adverse events by dose", "setting": "[2]; Stage 1, 175 mg", "result": 0}, {"measurement": "Diarrhea, common adverse events by dose", "setting": "[2]; Stage 1, 200 mg", "result": 0}, {"measurement": "Nausea, common adverse events by dose", "setting": "[2]; Stage 1, 200 mg", "result": 2}, {"measurement": "Vomiting, common adverse events by dose", "setting": "[2]; Stage 1, 200 mg", "result": 0}, {"measurement": "Diarrhea, common adverse events by dose", "setting": "[2]; Stage 2, 75 mg", "result": 7}, {"measurement": "Dizziness (lightheadedness included), common adverse events by dose", "setting": "[2]; Stage 2, 75 mg", "result": 8}, {"measurement": "Nausea, common adverse events by dose", "setting": "[2]; Stage 2, 75 mg", "result": 3}, {"measurement": "Diarrhea, common adverse events by dose", "setting": "[2]; Stage 2, 100 mg", "result": 10}, {"measurement": "Dizziness (lightheadedness included), common adverse events by dose", "setting": "[2]; Stage 2, 100 mg", "result": 7}, {"measurement": "Nausea, common adverse events by dose", "setting": "[2]; Stage 2, 100 mg", "result": 12}, {"measurement": "Diarrhea, common adverse events by dose", "setting": "[2]; Stage 2, 125 mg", "result": 3}, {"measurement": "Dizziness (lightheadedness included), common adverse events by dose", "setting": "[2]; Stage 2, 125 mg", "result": 8}, {"measurement": "Nausea, common adverse events by dose", "setting": "[2]; Stage 2, 125 mg", "result": 4}, {"measurement": "Diarrhea, common adverse events by dose", "setting": "[2]; Stage 2, 150 mg", "result": 2}, {"measurement": "Dizziness (lightheadedness included), common adverse events by dose", "setting": "[2]; Stage 2, 150 mg", "result": 2}, {"measurement": "Nausea, common adverse events by dose", "setting": "[2]; Stage 2, 150 mg", "result": 11}, {"measurement": "Diarrhea, common adverse events by dose", "setting": "[2]; Stage 2, 175 mg", "result": 1}, {"measurement": "Dizziness (lightheadedness included), common adverse events by dose", "setting": "[2]; Stage 2, 175 mg", "result": 0}, {"measurement": "Nausea, common adverse events by dose", "setting": "[2]; Stage 2, 175 mg", "result": 12}, {"measurement": "Diarrhea, common adverse events by dose", "setting": "[2]; Stage 2, 200 mg", "result": 3}, {"measurement": "Nausea, common adverse events by dose", "setting": "[2]; Stage 2, 200 mg", "result": 6}, {"measurement": "Diarrhea, common adverse events by dose", "setting": "[2]; Stage 2, 225 mg", "result": 3}, {"measurement": "Nausea, common adverse events by dose", "setting": "[2]; Stage 2, 225 mg", "result": 1}, {"measurement": "Diarrhea, common adverse events by dose", "setting": "[2]; Stage 2, 250 mg", "result": 2}, {"measurement": "Course of all other AEs", "setting": "[2]; both stages", "result": "resolved spontaneously without discontinuation"}, {"measurement": "Circadian rhythm of skin temperature, overall", "setting": "patients with PD", "result": "significant positive impact; also recorded: improved all markers of healthy circadian function"}]}
